Test results: patent US20240166643A1, “IMIDAZO[1,2-A]PYRIDINE COMPOUNDS AND THEIR USE IN THERAPY” (Imperial College Innovations Limited, priority 2020, published 2024)
Where two headings read alike, the source gives them in different places.

What was measured:
[1] = tested on: Plasmodium falciparum strain NF54; assay: SYBR Green assay, Plasmodium falciparum strain NF54; conditions: NF54, read-out: Pf EC50 strain NF54
[2] = target: Plasmodium vivax (Pv) NMT (Plasmodium vivax (strain Salvador I), UniProt A5K1A2); assay: biochemical
Chain of Plasmodium vivax (Pv) NMT (A5K1A2 1-410): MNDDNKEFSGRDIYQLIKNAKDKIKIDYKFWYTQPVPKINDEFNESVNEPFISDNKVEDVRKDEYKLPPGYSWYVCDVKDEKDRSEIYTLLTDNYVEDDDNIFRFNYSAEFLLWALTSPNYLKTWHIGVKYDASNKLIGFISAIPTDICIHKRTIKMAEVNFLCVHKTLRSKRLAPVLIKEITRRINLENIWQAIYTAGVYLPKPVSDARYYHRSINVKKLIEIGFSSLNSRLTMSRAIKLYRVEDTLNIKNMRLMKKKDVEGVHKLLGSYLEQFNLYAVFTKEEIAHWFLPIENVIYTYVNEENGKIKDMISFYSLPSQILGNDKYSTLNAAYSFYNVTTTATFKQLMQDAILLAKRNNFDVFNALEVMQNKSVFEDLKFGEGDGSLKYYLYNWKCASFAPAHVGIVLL

Human NMT1 (HsNMT1) = Human NMT1 (HsNMT1) (Homo sapiens, UniProt P30419); assay: biochemical
Chain of Human NMT1 (HsNMT1) (P30419 whole entry, looked up): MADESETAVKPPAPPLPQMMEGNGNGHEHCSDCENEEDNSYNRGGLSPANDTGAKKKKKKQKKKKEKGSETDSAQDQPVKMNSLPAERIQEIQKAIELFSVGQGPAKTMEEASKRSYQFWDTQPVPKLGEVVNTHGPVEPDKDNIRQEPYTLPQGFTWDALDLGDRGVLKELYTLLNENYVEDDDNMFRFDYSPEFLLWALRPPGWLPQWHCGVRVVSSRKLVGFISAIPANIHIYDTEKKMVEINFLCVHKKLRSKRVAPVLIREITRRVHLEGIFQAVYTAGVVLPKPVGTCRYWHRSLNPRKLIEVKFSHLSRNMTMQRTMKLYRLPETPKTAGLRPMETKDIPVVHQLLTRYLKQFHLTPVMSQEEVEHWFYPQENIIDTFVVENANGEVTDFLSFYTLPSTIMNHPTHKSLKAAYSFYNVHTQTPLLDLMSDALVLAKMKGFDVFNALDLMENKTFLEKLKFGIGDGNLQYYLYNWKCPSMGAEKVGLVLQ

[3] = Rat clearance and bioavailability (iv and oral dosing); assay type: in vivo; conditions: male, Sprague-Dawley, plasma; for half-life: read-out: Rat iv t1/2 (converted)
in vitro = conditions: male, Sprague-Dawley, rat, pooled cryopreserved rat hepatocytes, pH 7.4
[4] = tested on: Plasmodium falciparum 3D7; assay: SYBR Green assay, Plasmodium falciparum strain 3D7; assay type: cell-based; conditions: P. falciparum strain 3D7, 96 h incubation, read-out: Pf EC50 strain 3D7
BL-41 cells = assay: Metabolic activity assay (MTS assay) in BL-41 cell line; assay type: cell-based; conditions: Homo sapiens, 72 h
SU-DHL-10 cells = assay: Cell cytotoxicity in SU-DHL-10 cell line (CellTiter-Glo); assay type: cell-based; conditions: Homo sapiens, SU-DHL10; CellTiter-Glo, 48 h; read-out: SU-DHL-10 EC50
Method: Assay (c): Cell Cytotoxicity in SU-DHL-10 Cell Line
Cell Culture: SU-DHL-10 (ATCC CRL-2963) were cultured in RPMI-media (ATCC, 30-2001).
Cultures were maintained by the addition of fresh medium and inoculum of 8.0×10^4 to 2.0×10^5 cells/mL. Subculturing was done when the cell density was between 1.0×10^6 and 2.0×10^6 cells/mL.
Cell seeding: 5000 cells/well were plated in 384-white clear bottom plates (Greiner, 781098) for the assay in 20 μl growth media.
Top dose: 1 mM stocks of each compound was prepared in 100% DMSO and thereafter diluted 333.33 fold in growth media to obtain 3 μM (0.3% DMSO) mid stock of each compound, from which 10 μl was added to assay wells (with 20 μl cells) for a final concentration of 1 μM (0.1% DMSO). For subsequent dose-response: 1 mM stock was diluted 3 fold in DMSO before subjecting to above dilution pattern to obtain final 0.1% DMSO concentration.
Treatment: Cells were incubated with the compounds for 48 h at 37° C. in presence of 5% CO2.
Assay Procedure: The assay plate and its contents were equilibrated at room temperature for approximately 30 minutes. CellTiter-Glo® Reagent was added equal to the volume (1;1) of cell culture medium present in each well. The contents were mixed for 5 minutes on an orbital shaker to induce cell lysis. The plate was allowed to incubate at room temperature for 10 minutes to stabilize luminescent signal. The luminescence was recorded with an integration time of 0.25 seconds in EnVision 2104 Multilabel Plate Reader (Perkin Elmer).
Calculation: % Cytotoxicity was calculated considering 100% cell death in wells treated with 0.1% TritonX.

[5] = iv 3 mg/kg, administered as a single compound
[6] = oral 30 mg/kg, administered as a single compound
[7] = iv 1 mg/kg, cassette dosing of 4 compounds
[8] = oral 5 mg/kg, cassette dosing of 4 compounds

Row | Structure (SMILES) | EC50 [1] | IC50 [2] | IC50 (Human NMT1 (HsNMT1)) | also measured
1 | O=C(NCc1cnc2ccccn12)C1CN(c2nc(N3CCNCC3)ncc2Cl)C1 [Example 25] | 1090 nM | 15 nM | – | –
2 | Cc1nc2ccccn2c1CNC(=O)C1CN(c2nc(N3CCCNCC3)ncc2F)C1 [Example 12] | > 2500 nM | 200 nM | 130 nM | –
3 | O=C(NCc1cnc2cc(Cl)ccn12)C1CN(c2nc(N3CCCNCC3)ncc2Cl)C1 [Example 22] | 450 nM | 3.8 nM | – | –
4 | COc1cnc(N2CCCNCC2)nc1N1CC(C(=O)NCc2cnc3ccccn23)C1 [Example 19] | 3600 nM | 59 nM | – | –
5 | O=C(NCc1cnc2ccccn12)C1CN(c2nc(N3CCCNCC3)ncc2F)C1 [Example 6] | > 10000 nM | 130 nM | – | –
6 | O=C(NCc1cnc2ccccn12)C1CN(c2nc(N3CCNCC3)ncc2F)C1 [Example 16] | > 5000 nM | 68 nM | – | half-life [3, 5]: 354 min; bioavailability [3, 6]: 0.5%; half-life at 1 µM (in vitro): > 375 min
7 | Cc1nc2ccccn2c1C(C)NC(=O)C1CN(c2nc(N3CCCNCC3)ncc2Cl)C1 (stereo not drawn) [Example 24] | 180 nM | 12 nM | 6.3 nM | –
8 | CC(NC(=O)C1CN(c2nc(N3CCCNCC3)ncc2Cl)C1)c1cnc2ccccn12 (stereo not drawn) [Example 10] | – | 6.3 nM | 7.9 nM | EC50 [4]: 510 nM; EC50 (BL-41 cells): 240 nM; half-life at 1 µM (in vitro): 122 min
9 | C[C@H]1CN(c2ncc(Cl)c(N3CCC(C(=O)NC(C)(C)c4cnc5ccccn45)CC3)n2)CCN1C [Example 101, 1-{5-chloro-2-[(3S)-3,4-dimethylpiperazin-1-yl]pyrimidin-4-yl}-N-(2-{imidazo[1,2-a]pyridin-3-yl}propan-2-yl)piperidine-4-carboxamide] | – | 33 nM | 310 nM | EC50 [4]: > 1000 nM; half-life [3, 7]: 324 min; bioavailability [3, 8]: 32%; half-life at 1 µM (in vitro): 104 min
10 | CN1CCN(c2ncc(F)c(N3CC(C(=O)NC(C)(C)c4cnc5ccccn45)C3)n2)CC1 [Example 54] | – | 6.2 nM | – | EC50 [4]: 160 nM; EC50 (BL-41 cells): 2310 nM; half-life [3, 7]: 210 min; bioavailability [3, 8]: 33%; half-life at 1 µM (in vitro): > 180 min
11 | CC(NC(=O)C1CN(c2nc(N3CCCNCC3)ncc2F)C1)c1cnc2ccccn12 (stereo not drawn) [Example 9] | 2100 nM | 41 nM | 79 nM | –
12 | CN1CCCN(c2ncc(Cl)c(N3CC(C(=O)NC(C)(C)c4cnc5ccccn45)C3)n2)CC1 [Example 57] | – | 2.2 nM | 3.5 nM | EC50 [4]: 49 nM; EC50 (BL-41 cells): 1250 nM; half-life [3, 7]: 396 min; bioavailability [3, 8]: 6%; half-life at 1 µM (in vitro): 151 min; EC50 (SU-DHL-10 cells): 203 nM
13 | CN1CCN(c2ncc(Cl)c(N3CC(C(=O)NC(C)(C)c4cnc5ccccn45)C3)n2)CC1 [Example 55] | – | 4.4 nM | – | EC50 [4]: 64 nM; EC50 (BL-41 cells): 1070 nM; half-life [3, 7]: 186 min; bioavailability [3, 8]: 38%; half-life at 1 µM (in vitro): 140 min
14 | CN(c1ncc(Cl)c(N2CC(C(=O)NC(C)(C)c3cnc4ccccn34)C2)n1)C1CCNC1 (stereo not drawn) [Example 41] | 45 nM | 7.2 nM | 19 nM | –
15 | CN1CCCN(c2ncc(Cl)c(N3CC(C(=O)NCc4cnc5ccccn45)C3)n2)CC1 [Example 53] | 260 nM | 5.8 nM | – | half-life at 1 µM (in vitro): 24 min
16 | CC(NC(=O)C1CN(c2nc(N3CCNCC3)ncc2F)C1)c1cnc2ccccn12 (stereo not drawn) [Example 31] | 1300 nM | 19 nM | 180 nM | –
17 | COc1cnc(N2CCCNCC2)nc1N1CC(C(=O)NC(C)c2c(C)nc3ccccn23)C1 (stereo not drawn) [Example 23] | 340 nM | 30 nM | 27 nM | –

Row | Structure (SMILES) | EC50 [1] | IC50 [2] | IC50 (Human NMT1 (HsNMT1)) | also measured
18 | O=C(NCc1cnc2ccccn12)C1CN(c2nc(N3CC4CNC4C3)ncc2F)C1 (stereo not drawn) [Example 8] | > 10000 nM | 470 nM | 1020 nM | –
19 | CC1CN(c2ncc(F)c(N3CC(C(=O)NCc4cnc5ccccn45)C3)n2)CCN1 (stereo not drawn) [Example 28] | 3040 nM | 95 nM | – | –
20 | CC(C)(NC(=O)C1CN(c2nc(N3CCCNCC3)ncc2F)C1)c1cnc2ccccn12 [Example 11] | – | 14 nM | – | EC50 [4]: 51 nM; EC50 (BL-41 cells): 890 nM; half-life [3, 5]: 264 min; bioavailability [3, 6]: 0.35%
21 | CC(C)(NC(=O)C1CN(c2nc(N3CCCNCC3)ncc2Cl)C1)c1cnc2ccccn12 [Example 51] | – | 5.3 nM | – | EC50 [4]: 28 nM; EC50 (BL-41 cells): 80 nM; half-life [3, 5]: 546 min; bioavailability [3, 6]: 0.07%
22 | O=C(NCc1cnc2ccccn12)C1CN(c2nc(N3CC4CNC4C3)ncc2Cl)C1 (stereo not drawn) [Example 7] | 3200 nM | 40 nM | 110 nM | –
23 | Cc1nc2ccccn2c1CNC(=O)C1CN(c2nc(N3CCCNCC3)ncc2Cl)C1 [Example 18] | 2700 nM | 8.8 nM | 20 nM | –
24 | CN1CCCN(c2ncc(F)c(N3CC(C(=O)NCc4cnc5ccccn45)C3)n2)CC1 [Example 52] | > 10000 nM | 47 nM | – | –
25 | COc1cnc(N2CCN[C@H](C)C2)nc1N1CC(C(=O)NC(C)(C)c2cnc3ccccn23)C1 [Example 36] | 12 nM | 6.2 nM | – | –
26 | CN(Cc1cnc2ccccn12)C(=O)C1CN(c2nc(N3CCCNCC3)ncc2Cl)C1 [Example 17] | > 5000 nM | 140 nM | 360 nM | –
27 | O=C(NCc1nnc2ccccn12)C1CN(c2nc(N3CCCNCC3)ncc2Cl)C1 [Example 112] | > 10000 nM | – | 319 nM | –
28 | Cc1nc2ccccn2c1CNC(=O)C1CN(c2nc(N3CC4CNC4C3)ncc2F)C1 (stereo not drawn) [Example 13] | > 10000 nM | 660 nM | 380 nM | –
29 | COCCN1CCN(c2ncc(Cl)c(N3CC(C(=O)NC(C)(C)c4cnc5ccccn45)C3)n2)CC1 [Example 72] | – | 7.7 nM | 82 nM | EC50 [4]: > 590 nM; half-life [3, 7]: 162 min; bioavailability [3, 8]: 34%; half-life at 1 µM (in vitro): > 180 min
30 | C[C@H]1CN(c2ncc(F)c(N3CC(C(=O)NCc4cnc5ccccn45)C3)n2)CCN1 [Example 26] | > 2330 nM | 240 nM | – | –
31 | COc1cnc(N2CCN[C@@H](C)C2)nc1N1CC(C(=O)NC(C)(C)c2cnc3ccccn23)C1 [Example 39] | 85 nM | 12 nM | – | –
32 | COc1cnc(N2CCCNCC2)nc1N1CC(C(=O)NC(C)(C)c2cnc3ccccn23)C1 [Example 20] | – | 16 nM | 16 nM | EC50 [4]: 150 nM; EC50 (BL-41 cells): 1160 nM
33 | C[C@H]1CN(c2ncc(Cl)c(N3CC(C(=O)NCc4cnc5ccccn45)C3)n2)CCN1 [Example 27] | 2820 nM | 37 nM | – | –
